From patent US20110130355A1, “USE OF SOPHORICOSIDE IN THE MANUFACTURE OF MEDICAMENTS” (priority 2008, published 2011)
Marks after values point to notes of the source that are not given here.

Columns and labels:
[1] = system: carrageenan-induced edema; settings: in vivo; cited from earlier work
[2] = system: articular cartilage of the knee joint; test: Articular surface lesions of the knee joint (toluidine blue staining, image analysis); assay type: in vivo, SD rats; settings: OVX rats, 11 weeks; for lesion percentage for the articular surface, total: whole knee joint
Procedure: 1. The Pathological Sections of the Knee Joints of Rats
1) The knee joints of rats were fixed in 4% PFA for 48 hours;
2) The samples were decalcified in 15% ethylenediamine tetraacetic acid (EDTA) for 15 days;
The coronal sections were sectioned by a paraffin microtome (Leica, Model: RM2235) at thickness of 5 μm with the medial collateral ligament being used as a marker. The sections were transferred into warm water at 30° C., and plated on slides pre-treated with polylysine. The slides were transferred to an incubator at 65° C. for 3 hours and stored at ambient condition until use.
2) Staining: The sections were stained in 1% Ammonia Toluene blue for 5 minutes and rinsed with water for 10 minutes;
The lesion lengths in the four weight-bearing articular cartilage surface lesion regions of medial and lateral femoral condyles and medial and lateral tibial plateaus were measured with Axioplan 2 microscopy imaging analysis system (Axioplan 2 multifunctional automatic fluorescent microscope, KS400 imaging analysis system Ver. 3.0, AxioCam digital camera at a resolution of 3900×3090) by two independent persons skilled in the imaging art (FIGS. 3A and 3B). The results were averaged. The lesion percentage for each of the four articular surfaces was calculated. Finally the total lesion percentage for the knee joint was calculated as:
The lesion percentage for each part of the articular surface=lesion length/total length of the weight-bearing articular surface×100%.
The lesion percentage for articular surface of the knee joint=total lesion length/total length of the articular surface×100%.

[3] = system: uterus; test: Wet weights of uteri of ovariectomized rats; assay type: in vivo, SD rats; settings: OVX rats, 11 weeks
Procedure: OVX group and the intervention groups: The rats were anesthetized by intraperitoneal injection of 1% pentobarbital sodium at 5 ml/kg. After the onset of anesthesia, the rats were positioned face-down and dehaired at the third lumbar vertebra below the costal arch. The skin was sanitized by benzalkonium bromide and incised by about 1 cm. The subcutaneous tissue and the fascia were incised, and the muscle was bluntly separated. The peritoneum was carefully cut open. White fat was lifted carefully by using tissue forceps inserted to the abdominal cavity through the incision. The fat was gently turned over to expose the quincuncial ovary, which was then ligated by sterile 1 silk thread. The ovary was separated by cutting the oviduct by ophthalmic scissors. After hemostasis by compression, the fat was returned into the abdominal cavity. Subsequently, an incision was made on the opposite side and the same procedures were carried out to excise the ovary on the opposite side. The peritoneum, the fascia, the subcutaneous tissue, and the skin were sutured one by one. The incisions were sanitized.
The vehicle was 1% sodium carboxymethylcellulose (CMC-Na). The sham group and OVX group were administered the vehicle by gavage.
Intervention groups were administered the following formulations of active agents dissolved in the vehicle: […]
The rats were sacrificed by cervical dislocation after 11 weeks. Uteri were removed, weighted, and fixed in 4% paraformaldehyde (PFA). The whole right knee joints were removed and fixed in 4% PFA.
The rats were weighted, and then sacrificed. The uteri were removed from the rats and determined for wet weights.
Statistical analysis of variance was performed. The variance of the wet weights internal to the SHAM group was high, possibly attributing to different stages of menstrual cycle. In all groups, the body weights before the treatment were not statistically different from those after the treatment. The wet weights of uteri obtained from the ovariectomized groups were statistically different from those obtained from the SHAM group (p<0.01), indicating a successful ovariectomy.

[4] = system: interleukin-5; settings: cited from earlier work

In the case of `O=c1c(-c2ccc(O[C@@H]3O[C@H](CO)[C@@H](O)[C@H](O)[C@H]3O)cc2)coc2cc(O)cc(O)c12` [HDA, 3-[4-(β-D-glucopyranosyl)-benzyl]5,7-dihydro-4H-1-benzopyran-4-one (4′,5,7-trihydroxylisoflavone-4′-D-glucoside)], the carrageenan-induced edema [1] is given as “inhibit”, the “articular cartilage degeneration resulted from ovariectomy, in words” value ([2]; sophoricoside 10 mg/kg/day) is given as “ameliorated by the interventions other than HDA10 and HDA20” and the “articular cartilage degeneration resulted from ovariectomy, in words” value ([2]; sophoricoside 20 mg/kg/day) is given as “ameliorated by the interventions other than HDA10 and HDA20”. The “articular cartilage degeneration resulted from ovariectomy, in words” value ([2]; sophoricoside 40 mg/kg/day) was “effective but not able to completely reverse the degeneration”, the “articular cartilage degeneration resulted from ovariectomy, in words” value ([2]; sophoricoside 80 mg/kg/day) was “significantly more effective than OVX” and the “lesion percentage for the articular surface, total” value (shortened to “lesion percentage”) ([2]; sophoricoside 10 mg/kg/day) was 7.785 ± 0.547^□□ %. For the same compound, the “lesion percentage” value ([2]; sophoricoside 20 mg/kg/day) was 6.622 ± 0.366^□□ %, the “lesion percentage” value ([2]; sophoricoside 40 mg/kg/day) was 5.617 ± 0.264*^□□ % and the “lesion percentage” value ([2]; sophoricoside 80 mg/kg/day) was 4.808 ± 0.603 %. The “Wet weight of uterus” value ([3]; sophoricoside 10 mg/kg/day) was 0.143 ± 0.008 g, the “Wet weight of uterus” value ([3]; sophoricoside 20 mg/kg/day) was 0.129 ± 0.008 g and the “Wet weight of uterus” value ([3]; sophoricoside 40 mg/kg/day) was 0.162 ± 0.013 g. For the same compound, the “Wet weight of uterus” value ([3]; sophoricoside 80 mg/kg/day) was 0.166 ± 0.017 g and the “inhibition of interleukin-5” value [4] was “inhibitor of interleukin-5”.
